Several values for one entry are separate records, joined by “and”; a condition that tells them apart may be missing. Equal values may be shown once. Inconclusive results and toxic doses are left out.
System: BDF1 mice, P388 leukemia ip, median survival T/C
Experiment: NCI In Vivo Anticancer Drug Screen. Data for tumor model P388 Leukemia (intraperitoneal) in B6D2F1 (BDF1) mice
Conditions: endpoint: median survival time, higher = longer survival
Method in brief: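 Read-out is survival of treated animals expressed relative to the vehicle group, as a T/C ratio.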

[1] = dose: 100.0 mg/kg/injection, schedule: Q01DX009 (ip), vehicle: saline with Tween-80
[2] = dose: 200.0 mg/kg/injection, schedule: Q01DX009 (ip), vehicle: saline with Tween-80
[3] = dose: 400.0 mg/kg/injection, schedule: Q01DX009 (ip), vehicle: saline with Tween-80
[4] = dose: 100.0 mg/kg/injection, schedule: Q04DX003 (ip), vehicle: saline
[5] = dose: 50.0 mg/kg/injection, schedule: Q01DX009 (ip), vehicle: saline with Tween-80
[6] = dose: 100.0 mg/kg/injection, schedule: Q04DX003 (ip), vehicle: saline with Tween-80
[7] = dose: 200.0 mg/kg/injection, schedule: Q04DX003 (ip), vehicle: saline with Tween-80
[8] = dose: 400.0 mg/kg/injection, schedule: Q04DX003 (ip), vehicle: saline with Tween-80
[9] = dose: 100.0 mg/kg/injection, schedule: Q01DX009 (ip), vehicle: Klucel (hydroxypropylcellulose) (HPC)
[10] = dose: 100.0 mg/kg/injection, schedule: Q04DX003 (ip), vehicle: Klucel (hydroxypropylcellulose) (HPC)
[11] = dose: 200.0 mg/kg/injection, schedule: Q04DX003 (ip), vehicle: Klucel (hydroxypropylcellulose) (HPC)
[12] = dose: 400.0 mg/kg/injection, schedule: Q04DX003 (ip), vehicle: Klucel (hydroxypropylcellulose) (HPC)

For `COc1cccc2c1C(=O)c1c(O)c3c(c(O)c1C2=O)C[C@@](O)(C(C)=O)C[C@@H]3OC1CC(N(C)C)C(O)C(C)O1` (stereo partly specified), the T/C (dose: 3.46 mg/kg/injection, schedule: Q04DX003 (ip), vehicle: water) was 161 % of control, the T/C (dose: 5.76 mg/kg/injection, schedule: Q04DX003 (ip), vehicle: water) was 167 % of control and the T/C (dose: 9.6 mg/kg/injection, schedule: Q04DX003 (ip), vehicle: water) was 184 % of control. For the same compound, the T/C (dose: 16.0 mg/kg/injection, schedule: Q04DX003 (ip), vehicle: water) was 110 % of control.
For `COc1ccc(/C=C/c2ccnc3ccccc23)cc1`, the T/C [1] was 93 % of control, the T/C [2] was 111 % of control and the T/C [3] was 93 % of control.
In the case of `C[S+](C)Cc1ccc(C(=O)Oc2ccc([N+](=O)[O-])cc2)cc1`, the T/C (dose: 50.0 mg/kg/injection, schedule: Q01DX009 (ip), vehicle: saline) is reported as 100 % of control, the T/C (dose: 50.0 mg/kg/injection, schedule: Q04DX003 (ip), vehicle: saline) is reported as 100 % of control and the T/C (dose: 100.0 mg/kg/injection, schedule: Q01DX009 (ip), vehicle: saline) is reported as 105 % of control. The T/C [4] was 109 % of control and the T/C (dose: 200.0 mg/kg/injection, schedule: Q04DX003 (ip), vehicle: saline) was 100 % of control.
With `NNc1nncn2c1cc1ccccc12` the T/C [5] was 86 % of control and the T/C [1] was 107 % of control.
In the case of `CCN(CC)CCOCCO`, the T/C [4] is reported as 110 % of control and the T/C (dose: 400.0 mg/kg/injection, schedule: Q04DX003 (ip), vehicle: saline) is reported as 100 % of control.
With `COc1cc2cc(c1Cl)N(C)C(=O)CC(OC(=O)C(C)N(C)C(=O)C(C)C)C1(C)OC1C(C)C1CC(O)(NC(=O)O1)C(OC)/C=C/C=C(C)C2` (stereo unspecified) the T/C (dose: 0.2 micrograms/kg/injection, schedule: Q01DX009 (ip), vehicle: saline + alcohol) was 165 % of control, the T/C (dose: 0.4 micrograms/kg/injection, schedule: Q01DX009 (ip), vehicle: saline + alcohol) was 155 % of control and the T/C (dose: 0.8 micrograms/kg/injection, schedule: Q01DX009 (ip), vehicle: saline + alcohol) was 190 % of control. The T/C (dose: 1.6 micrograms/kg/injection, schedule: Q01DX009 (ip), vehicle: saline + alcohol) was 155 % of control, the T/C (dose: 6.2 micrograms/kg/injection, schedule: Q01DX009 (ip), vehicle: saline + alcohol) was 155 % of control and the T/C (dose: 12.5 micrograms/kg/injection, schedule: Q01DX009 (ip), vehicle: saline + alcohol) was 120 % of control.
For `CC(=O)n1cc(C2CC(=O)OC3=C2C(=O)CCC3)c2ccccc21` (stereo unspecified), the T/C [1] was 94 % of control, the T/C [6] was 98 % of control and the T/C [2] was 100 % of control. The T/C [7] was 93 % of control, the T/C [3] was 102 % of control and the T/C [8] was 93 % of control.
For `O=C(O)c1c[nH]c2nccnc12`, the T/C (dose: 25.0 mg/kg/injection, schedule: Q01DX009 (ip), vehicle: water) was 98 % of control, the T/C (dose: 25.0 mg/kg/injection, schedule: Q04DX003 (ip), vehicle: water) was 103 % of control and the T/C (dose: 50.0 mg/kg/injection, schedule: Q04DX003 (ip), vehicle: water) was 99 % of control. The T/C (dose: 100.0 mg/kg/injection, schedule: Q01DX009 (ip), vehicle: water) was 88 % of control, the T/C (dose: 100.0 mg/kg/injection, schedule: Q04DX003 (ip), vehicle: water) was 103 % of control and the T/C (dose: 200.0 mg/kg/injection, schedule: Q04DX003 (ip), vehicle: water) was 103 % of control. For the same compound, the T/C (dose: 400.0 mg/kg/injection, schedule: Q04DX003 (ip), vehicle: water) was 92 % of control.
In the case of `O=C(c1ccccc1)C1Cc2ccccc2C1=O` (stereo unspecified), the T/C (dose: 100.0 mg/kg/injection, schedule: Q01DX001 (ip), vehicle: Klucel (hydroxypropylcellulose) (HPC)) is reported as 100 % of control, the T/C [9] is reported as 113 % of control and the T/C [10] is reported as 100 % of control. The T/C (dose: 200.0 mg/kg/injection, schedule: Q01DX001 (ip), vehicle: Klucel (hydroxypropylcellulose) (HPC)) was 100 % of control, the T/C (dose: 200.0 mg/kg/injection, schedule: Q01DX009 (ip), vehicle: Klucel (hydroxypropylcellulose) (HPC)) was 109 % of control and the T/C [11] was 100 % of control. For the same compound, the T/C (dose: 400.0 mg/kg/injection, schedule: Q01DX001 (ip), vehicle: Klucel (hydroxypropylcellulose) (HPC)) was 95 % of control, the T/C (dose: 400.0 mg/kg/injection, schedule: Q01DX009 (ip), vehicle: Klucel (hydroxypropylcellulose) (HPC)) was 118 % of control and the T/C [12] was 90 % of control.
`COc1ccc(/C(C#N)=C2C=C/C(=N\O)C(C)=C/2Cl)cc1` was tested, and the T/C (dose: 12.5 mg/kg/injection, schedule: Q04DX003 (ip), vehicle: saline with Tween-80) was 91 % of control, the T/C (dose: 25.0 mg/kg/injection, schedule: Q04DX003 (ip), vehicle: saline with Tween-80) was 91 % of control and the T/C (dose: 50.0 mg/kg/injection, schedule: Q04DX003 (ip), vehicle: saline with Tween-80) was 87 % of control.
With `C=CCCCCCC/C=C\CCCCC` the T/C (dose: 50.0 mg/kg/injection, schedule: Q01DX010 (ip), vehicle: alcohol) was 104 % of control.
With `O=C(O)C1CCC[N-]C1.O=C(O)C1CCC[N-]C1.[Cl][Pt+2][Cl]` (stereo unspecified) the T/C (dose: 5.0 mg/kg/injection, schedule: Q04DX003 (ip), vehicle: saline) was 95 % of control, the T/C (dose: 10.0 mg/kg/injection, schedule: Q04DX003 (ip), vehicle: saline) was 86 % of control and the T/C (dose: 20.0 mg/kg/injection, schedule: Q04DX003 (ip), vehicle: saline) was 95 % of control.
With `Cc1nc2ccccc2nc1CC(O)(c1ccccc1)c1cccc2ccccc12` (stereo unspecified) the T/C [5] was 94 % of control, the T/C [1] was 95 % of control and the T/C [2] was 97 % of control.
`CCC12CCC(=O)NC1Cc1[nH]c3c(OC)cccc3c1C2` (stereo unspecified) was tested, and the T/C (dose: 100.0 mg/kg/injection, schedule: Q04DX003 (ip), vehicle: saline sonified) was 100 % of control, the T/C (dose: 200.0 mg/kg/injection, schedule: Q04DX003 (ip), vehicle: saline sonified) was 100 % of control and the T/C (dose: 400.0 mg/kg/injection, schedule: Q04DX003 (ip), vehicle: saline sonified) was 109 % of control.
With `Fc1ccc(C=Nc2cccc(Cl)c2)cc1` the T/C [6] was 108 % of control, the T/C [7] was 104 % of control and the T/C [8] was 108 % of control.
With `O=c1cc(CCl)[nH]nc1CCl` the T/C (dose: 14.5 mg/kg/injection, schedule: Q04DX003 (ip), vehicle: saline with Tween-80) was 166 % of control, the T/C (dose: 22.0 mg/kg/injection, schedule: Q04DX003 (ip), vehicle: saline with Tween-80) was 159 % of control and the T/C (dose: 33.0 mg/kg/injection, schedule: Q04DX003 (ip), vehicle: saline with Tween-80) was 151 % of control. The T/C (dose: 75.0 mg/kg/injection, schedule: Q04DX003 (ip), vehicle: saline with Tween-80) was 98 % of control.
`C[C@]12C=CC(=O)C=C1[C@@H](F)C[C@@H]1[C@@H]2[C@@H](O)C[C@@]2(C)[C@H]1CC[C@]2(O)C(=O)CO` was tested, and the T/C (dose: 25.0 mg/kg/injection, schedule: Q01DX009 (ip), vehicle: Klucel (hydroxypropylcellulose) (HPC)) was 104 % of control, the T/C (dose: 50.0 mg/kg/injection, schedule: Q01DX009 (ip), vehicle: Klucel (hydroxypropylcellulose) (HPC)) was 96 % of control and the T/C [9] was 91 % of control and 108 % of control. For the same compound, the T/C [10] was 100 % of control, the T/C [11] was 104 % of control and the T/C [12] was 95 % of control.
In the case of `CN(C)NC1OC(C(O)S(=O)(=O)O)C(OCc2ccccc2)C(OCc2ccccc2)C1O` (stereo unspecified), the T/C [5] is reported as 109 % of control, the T/C [1] is reported as 98 % of control and the T/C [2] is reported as 94 % of control.
With `COc1cc(/C=N\Nc2ccccc2[N+](=O)[O-])cc(OC)c1OC` the T/C [1] was 95 % of control, the T/C [2] was 104 % of control and the T/C [3] was 104 % of control.

From PubChem BioAssay AID328 (DTP/NCI, 2004)
